Where two headings read alike, the source gives them in different places.
What was measured:
SARS-COV-2 = assay: microbe, parasite or virus in culture; format: cell-based; set-up: SI (Selectivity Index, CC50/IC50): unit not given here; details: for SI (Selectivity Index, CC50/IC50): SARS-COV-2, values >50 assumed to be 50; for IC50: read-out: SARS-COV-2 inhibition (IC50)
in vitro = details: African green monkey
[1] = Severe acute respiratory syndrome coronavirus 2, Vero cells, 24 hours infection
[2] = Severe acute respiratory syndrome coronavirus 2, Vero, 24 h

COc1cc2cc3c(c(-c4cnc(Cl)c(N(C)C)c4)c2cc1OC)C(=O)OC3 [Example 201, 9-(6-chloro-5-(dimethylamino)pyridin-3-yl)-6,7-dimethoxynaphtho[2,3-c]furan-1(3H)-one]
SI (Selectivity Index, CC50/IC50) (SARS-COV-2): 39.52
IC50 (SARS-COV-2; [1]): 1.27 µM
CC50 (in vitro): > 50 µM

COc1cc2cc3c(c(-c4cnc(N(C)CCC5=CCCCC5)nc4)c2cc1OC)C(=O)OC3.Cl [Example 101, 9-(2-((2-(cyclohex-1-en-1-yl)ethyl)(methyl)amino)pyrimidin-5-yl)-6,7-dimethoxynaphtho[2,3-c]furan-1(3H)-one hydrochloride]
SI (Selectivity Index, CC50/IC50) (SARS-COV-2): 13.00
IC50 (SARS-COV-2; [2]): 3.85 µM
CC50 (in vitro): > 50 µM

COc1cc2cc3c(c(-c4ccc5nccc(O)c5c4)c2cc1OC)C(=O)OC3 [Example 117, 9-(4-hydroxyquinolin-6-yl)-6,7-dimethoxynaphtho[2,3-c]furan-1(3H)-one]
SI (Selectivity Index, CC50/IC50) (SARS-COV-2): 1.0
IC50 (SARS-COV-2; [1]): > 50 µM
CC50 (in vitro): > 50 µM

CCC(C)N(C)c1ncc(-c2c3c(cc4cc(OC)c(OC)cc24)COC3=O)cn1.Cl (stereo not drawn) [Example 100, 9-(2-(sec-butyl(methyl)amino)pyrimidin-5-yl)-6,7-dimethoxynaphtho[2,3-c]furan-1(3H)-one hydrochloride]
SI (Selectivity Index, CC50/IC50) (SARS-COV-2): 96.21
IC50 (SARS-COV-2; [2]): 0.52 µM
CC50 (in vitro): > 50 µM

COc1cc2cc3c(c(-c4ccc(N(C)Cc5cccnc5)cc4)c2cc1OC)C(=O)OC3 [Example 255, 6,7-dimethoxy-9-(4-(methyl(pyridin-3-ylmethyl)amino)phenyl)naphtho[2,3-c]furan-1(3H)-one]
SI (Selectivity Index, CC50/IC50) (SARS-COV-2): 15.74
IC50 (SARS-COV-2; [1]): 3.18 µM
CC50 (in vitro): > 50 µM

CCCCN(C)c1ncc(-c2c3c(cc4cc(OC)c(OC)cc24)COC3=O)cn1 [Example 71, 9-(2-(butyl(methyl)amino)pyrimidin-5-yl)-6,7-dimethoxynaphtho[2,3-c]furan-1(3H)-one]
SI (Selectivity Index, CC50/IC50) (SARS-COV-2): 234.36
IC50 (SARS-COV-2; [2]): 0.21 µM
CC50 (in vitro): > 50 µM

COc1cc2cc3c(c(N4CCN(CCO)CC4)c2cc1OC)C(=O)OC3 [Example 144, 9-(4-(2-hydroxyethyl)piperazin-1-yl)-6,7-dimethoxynaphtho[2,3-c]furan-1(3H)-one]
SI (Selectivity Index, CC50/IC50) (SARS-COV-2): 1.0
IC50 (SARS-COV-2; [1]): > 50 µM
CC50 (in vitro): > 50 µM

COc1cc2cc3c(c(-c4ccc(C(=O)c5ccccc5)s4)c2cc1OC)C(=O)OC3 [Example 53]
SI (Selectivity Index, CC50/IC50) (SARS-COV-2): 19.94
IC50 (SARS-COV-2; [1]): 2.51 µM
CC50 (in vitro): > 50 µM

COc1cc2cc3c(c(-c4ccc5c(CN6CCOCC6)c[nH]c5c4)c2cc1OC)C(=O)OC3.Cl [Example 203, 6,7-dimethoxy-9-(3-(morpholinomethyl)-1H-indol-6-yl)naphtho[2,3-c]furan-1(3H)-one]
SI (Selectivity Index, CC50/IC50) (SARS-COV-2): 8.39
IC50 (SARS-COV-2; [2]): 3.54 µM
CC50 (in vitro): 29.7 µM

COCCOc1cncc(-c2c3c(cc4cc(OC)c(OC)cc24)COC3=O)c1 [Example 173, 6,7-dimethoxy-9-(5-(2-methoxyethoxy)pyridin-3-yl)naphtho[2,3-c]furan-1(3H)-one]
SI (Selectivity Index, CC50/IC50) (SARS-COV-2): 1.0
IC50 (SARS-COV-2; [1]): > 50 µM
CC50 (in vitro): > 50 µM

CCN(c1ncc(-c2c3c(cc4cc(OC)c(OC)cc24)COC3=O)cn1)C1CCCC1.Cl [Example 92, 9-(2-(cyclopentyl(ethyl)amino)pyrimidin-5-yl)-6,7-dimethoxynaphtho[2,3-c]furan-1(3H)-one hydrochloride]
SI (Selectivity Index, CC50/IC50) (SARS-COV-2): 42.34
IC50 (SARS-COV-2; [2]): 1.18 µM
CC50 (in vitro): > 50 µM

COCCN(C)c1c2c(cc3cc(OC)c(OC)cc13)COC2=O [Example 5, 6,7-dimethoxy-9-((2-methoxyethyl)(methyl)amino)naphtho[2,3-c]furan-1(3H)-one]
SI (Selectivity Index, CC50/IC50) (SARS-COV-2): 1.00
IC50 (SARS-COV-2; [1]): > 50 µM
CC50 (in vitro): > 50 µM

COc1cc2cc3c(c(-c4ccc(N5CCC(O)CC5)nc4)c2cc1OC)C(=O)OC3 [Example 165, 9-(6-(4-hydroxypiperidin-1-yl)pyridin-3-yl)-6,7-dimethoxynaphtho[2,3-c]furan-1(3H)-one]
SI (Selectivity Index, CC50/IC50) (SARS-COV-2): 11.69
IC50 (SARS-COV-2; [1]): 2.91 µM
CC50 (in vitro): 34 µM

CCN(Cc1ccncc1)c1ccc(-c2c3c(cc4cc(OC)c(OC)cc24)COC3=O)cn1 [Example 226, 9-(6-(ethyl(pyridin-4-ylmethyl)amino)pyridin-3-yl)-6,7-dimethoxynaphtho[2,3-c]furan-1(3H)-one]
SI (Selectivity Index, CC50/IC50) (SARS-COV-2): 7.47
IC50 (SARS-COV-2; [1]): 6.69 µM
CC50 (in vitro): > 50 µM

COc1cc2cc3c(c(-c4ccc(N(C)[C@H]5CCc6c(cccc6OC)C5)nc4)c2cc1OC)C(=O)OC3 [Example 164, (S)-6,7-dimethoxy-9-(6-((5-methoxy-1,2,3,4-tetrahydronaphthalen-2-yl)(methyl)amino)pyridin-3-yl)naphtho[2,3-c]furan-1(3H)-one]
SI (Selectivity Index, CC50/IC50) (SARS-COV-2): 39.02
IC50 (SARS-COV-2; [1]): 1.28 µM
CC50 (in vitro): > 50 µM

CCN(c1ncc(-c2c3c(cc4cc(OC)c(OC)cc24)COC3=O)cn1)C1CCCCC1.Cl [Example 78, 9-(2-(cyclohexyl(ethyl)amino)pyrimidin-5-yl)-6,7-dimethoxynaphtho[2,3-c]furan-1(3H)-one hydrochloride]
SI (Selectivity Index, CC50/IC50) (SARS-COV-2): 18.80
IC50 (SARS-COV-2; [2]): 2.66 µM
CC50 (in vitro): > 50 µM

COc1cc2cc3c(c(-c4ccc5ncc(C)cc5c4)c2cc1OC)C(=O)OC3 [Example 120, 6,7-dimethoxy-9-(3-methylquinolin-6-yl)naphtho[2,3-c]furan-1(3H)-one]
SI (Selectivity Index, CC50/IC50) (SARS-COV-2): 12.07
IC50 (SARS-COV-2; [1]): 4.14 µM
CC50 (in vitro): > 50 µM

COc1cc2cc3c(c(-c4ccc(N5CCn6c(nnc6C(F)(F)F)C5)nc4)c2cc1OC)C(=O)OC3 [Example 240, 6,7-dimethoxy-9-(6-(3-(trifluoromethyl)-5,6-dihydro-[1,2,4]triazolo[4,3-a]pyrazin-7 (8H)-yl)pyridin-3-yl)naphtho[2,3-c]furan-1(3H)-one]
SI (Selectivity Index, CC50/IC50) (SARS-COV-2): 1.00
IC50 (SARS-COV-2; [1]): > 50 µM
CC50 (in vitro): > 50 µM

COc1cc2cc3c(c(-c4cc5c(cc4OC)OCO5)c2cc1OC)C(=O)OC3 [Example 88, 6,7-dimethoxy-9-(6-methoxybenzo[d][1,3]dioxol-5-yl)naphtho[2,3-c]furan-1(3H)-one]
SI (Selectivity Index, CC50/IC50) (SARS-COV-2): 3.00
IC50 (SARS-COV-2; [1]): 16.6 µM
CC50 (in vitro): > 50 µM

COc1cc2cc3c(c(-c4cnc(N(C)C5CC5)nc4)c2cc1OC)C(=O)OC3 [Example 70, 9-(2-(cyclopropyl(methyl)amino)pyrimidin-5-yl)-6,7-dimethoxynaphtho[2,3-c]furan-1(3H)-one]
SI (Selectivity Index, CC50/IC50) (SARS-COV-2): 92.84
IC50 (SARS-COV-2; [1]): 0.54 µM
CC50 (in vitro): > 50 µM

COc1cc2cc3c(c(-c4cnc(Oc5cccc6ccccc56)nc4)c2cc1OC)C(=O)OC3 [Example 21, 6,7-dimethoxy-9-(2-(naphthalen-1-yloxy)pyrimidin-5-yl)naphtho[2,3-c]furan-1(3H)-one]
SI (Selectivity Index, CC50/IC50) (SARS-COV-2): 1.00
IC50 (SARS-COV-2; [1]): > 50 µM
CC50 (in vitro): > 50 µM

COc1cc2cc3c(c(-c4ccc(N5CCC(F)(F)CC5)nc4)c2cc1OC)C(=O)OC3 [Example 122, 9-(6-(4,4-difluoropiperidin-1-yl)pyridin-3-yl)-6,7-dimethoxynaphtho[2,3-c]furan-1(3H)-one]
SI (Selectivity Index, CC50/IC50) (SARS-COV-2): 512.00
IC50 (SARS-COV-2; [1]): 0.17 µM
CC50 (in vitro): > 50 µM
